According to patent publication US10206394B2, “Herbicidal compounds” (Syngenta Participations AG, priority 2014, dated 2019):
Like-named read-outs stand apart in the source and are kept apart here.

How the values were obtained:
Assay in all cases: Glasshouse assay for herbicidal activity (pre- and post-emergence), percentage phytotoxicity
Type in all cases: in vivo
[1] = tested on: Alopecurus myosuroides (ALOMY); conditions: Alopecurus myosuroides
How it was run: (§1)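 Visually rated damage, 0–100%. PRE spray 1 d after sowing, scored 20 DAA; POST spray ~12 d, scored 15 DAA. Glasshouse at 65% humidity, 16 h day.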

Avena fatua (AVEFA) = conditions: Avena fatua
How it was run: as §1

[2] = tested on: Echinochloa crus-galli (ECHCG); conditions: Echinochloa crus-galli
How it was run: as §1

Lolium perenne (LOLPE) = conditions: Lolium perenne
How it was run: as §1

[3] = post-emergence, 360 h, Rate 250 g/ha, post-emergence, assessed visually 15 DAA, 100%=total damage, 0%=no damage, read-out: Post-emergence herbicidal activity (percentage phytotoxicity) ALOMY POST
[4] = pre-emergence, 480 h, Rate 250 g/ha, pre-emergence, assessed visually 20 DAA, 100%=total damage, 0%=no damage, read-out: Pre-emergence herbicidal activity (percentage phytotoxicity) ALOMY PRE
[5] = post-emergence, 360 h, Rate 250 g/ha, post-emergence, assessed visually 15 DAA, 100%=total damage, 0%=no damage, read-out: Post-emergence herbicidal activity (percentage phytotoxicity) AVEFA POST
[6] = pre-emergence, 480 h, Rate 250 g/ha, pre-emergence, assessed visually 20 DAA, 100%=total damage, 0%=no damage, read-out: Pre-emergence herbicidal activity (percentage phytotoxicity) AVEFA PRE
[7] = post-emergence, 360 h, Rate 250 g/ha, post-emergence, assessed visually 15 DAA, 100%=total damage, 0%=no damage, read-out: Post-emergence herbicidal activity (percentage phytotoxicity) ECHCG POST
[8] = pre-emergence, 480 h, Rate 250 g/ha, pre-emergence, assessed visually 20 DAA, 100%=total damage, 0%=no damage, read-out: Pre-emergence herbicidal activity (percentage phytotoxicity) ECHCG PRE
[9] = post-emergence, 360 h, Rate 250 g/ha, post-emergence, assessed visually 15 DAA, 100%=total damage, 0%=no damage, read-out: Post-emergence herbicidal activity (percentage phytotoxicity) LOLPE POST
[10] = pre-emergence, 480 h, Rate 250 g/ha, pre-emergence, assessed visually 20 DAA, 100%=total damage, 0%=no damage, read-out: Pre-emergence herbicidal activity (percentage phytotoxicity) LOLPE PRE
[11] = post-emergence, 360 h, POST-emergence, rate 250 g/ha, visual score 15 DAA (100%=total damage, 0%=no damage), read-out: Post-emergence herbicidal activity (percentage phytotoxicity) ALOMY POST
[12] = pre-emergence, 480 h, PRE-emergence, rate 250 g/ha, visual score 20 DAA (100%=total damage, 0%=no damage), read-out: Pre-emergence herbicidal activity (percentage phytotoxicity) ALOMY PRE
[13] = post-emergence, 360 h, POST-emergence, rate 250 g/ha, visual score 15 DAA (100%=total damage, 0%=no damage), read-out: Post-emergence herbicidal activity (percentage phytotoxicity) AVEFA POST
[14] = pre-emergence, 480 h, PRE-emergence, rate 250 g/ha, visual score 20 DAA (100%=total damage, 0%=no damage), read-out: Pre-emergence herbicidal activity (percentage phytotoxicity) AVEFA PRE
[15] = post-emergence, 360 h, POST-emergence, rate 250 g/ha, visual score 15 DAA (100%=total damage, 0%=no damage), read-out: Post-emergence herbicidal activity (percentage phytotoxicity) ECHCG POST
[16] = pre-emergence, 480 h, PRE-emergence, rate 250 g/ha, visual score 20 DAA (100%=total damage, 0%=no damage), read-out: Pre-emergence herbicidal activity (percentage phytotoxicity) ECHCG PRE
[17] = post-emergence, 360 h, POST-emergence, rate 250 g/ha, visual score 15 DAA (100%=total damage, 0%=no damage), read-out: Post-emergence herbicidal activity (percentage phytotoxicity) LOLPE POST
[18] = pre-emergence, 480 h, PRE-emergence, rate 250 g/ha, visual score 20 DAA (100%=total damage, 0%=no damage), read-out: Pre-emergence herbicidal activity (percentage phytotoxicity) LOLPE PRE

## Cc1cc(C)c(C2C(=O)CC(CC(=O)NCC3CCOCC3)C2=O)c(C)c1 (centres unmarked) [Compound A13]
[1]; [3]
  pest or weed control at 250 g/ha: 80%
[1]; [4]
  pest or weed control at 250 g/ha: 50%
Avena fatua (AVEFA); [5]
  pest or weed control at 250 g/ha: 70%
Avena fatua (AVEFA); [6]
  pest or weed control at 250 g/ha: 40%
[2]; [7]
  pest or weed control at 250 g/ha: 80%
[2]; [8]
  pest or weed control at 250 g/ha: 100%
Lolium perenne (LOLPE); [9]
  pest or weed control at 250 g/ha: 80%
Lolium perenne (LOLPE); [10]
  pest or weed control at 250 g/ha: 70%

## CCc1cc(OCC(F)(F)F)cc(C)c1C1C(=O)CC(CC(=O)NC(C)C)C1=O (centres unmarked) [Compound B217]
[1]; [11]
  pest or weed control at 250 g/ha: 100%
[1]; [12]
  pest or weed control at 250 g/ha: 100%
Avena fatua (AVEFA); [13]
  pest or weed control at 250 g/ha: 100%
Avena fatua (AVEFA); [14]
  pest or weed control at 250 g/ha: 100%
[2]; [15]
  pest or weed control at 250 g/ha: 100%
[2]; [16]
  pest or weed control at 250 g/ha: 100%
Lolium perenne (LOLPE); [17]
  pest or weed control at 250 g/ha: 100%
Lolium perenne (LOLPE); [18]
  pest or weed control at 250 g/ha: 100%

## Cc1cc(C)c(C2C(=O)CC(CC(=O)NC3(C#N)CC3)C2=O)c(C)c1 (centres unmarked) [Compound A82]
[1]; [3]
  pest or weed control at 250 g/ha: 10%
Avena fatua (AVEFA); [5]
  pest or weed control at 250 g/ha: 10%
[2]; [7]
  pest or weed control at 250 g/ha: 30%
Lolium perenne (LOLPE); [9]
  pest or weed control at 250 g/ha: 30%

## Cc1cc(C)c(C2C(=O)CC(CC(=O)NC(C)C(C)(C)C)C2=O)c(C)c1 (centres unmarked) [Compound B26]
[1]; post-emergence, 360 h, 250 g/ha, post-emergence, 15 DAA, visual assessment (100%=total damage, 0%=no damage), read-out: Post-emergence herbicidal activity (percentage phytotoxicity) ALOMY POST
  pest or weed control at 250 g/ha: 70%
[1]; pre-emergence, 480 h, 250 g/ha, pre-emergence, 20 DAA, visual assessment (100%=total damage, 0%=no damage), read-out: Pre-emergence herbicidal activity (percentage phytotoxicity) ALOMY PRE
  pest or weed control at 250 g/ha: 60%
Avena fatua (AVEFA); post-emergence, 360 h, 250 g/ha, post-emergence, 15 DAA, visual assessment (100%=total damage, 0%=no damage), read-out: Post-emergence herbicidal activity (percentage phytotoxicity) AVEFA POST
  pest or weed control at 250 g/ha: 60%
Avena fatua (AVEFA); pre-emergence, 480 h, 250 g/ha, pre-emergence, 20 DAA, visual assessment (100%=total damage, 0%=no damage), read-out: Pre-emergence herbicidal activity (percentage phytotoxicity) AVEFA PRE
  pest or weed control at 250 g/ha: 20%
[2]; post-emergence, 360 h, 250 g/ha, post-emergence, 15 DAA, visual assessment (100%=total damage, 0%=no damage), read-out: Post-emergence herbicidal activity (percentage phytotoxicity) ECHCG POST
  pest or weed control at 250 g/ha: 60%
[2]; pre-emergence, 480 h, 250 g/ha, pre-emergence, 20 DAA, visual assessment (100%=total damage, 0%=no damage), read-out: Pre-emergence herbicidal activity (percentage phytotoxicity) ECHCG PRE
  pest or weed control at 250 g/ha: 70%
Lolium perenne (LOLPE); post-emergence, 360 h, 250 g/ha, post-emergence, 15 DAA, visual assessment (100%=total damage, 0%=no damage), read-out: Post-emergence herbicidal activity (percentage phytotoxicity) LOLPE POST
  pest or weed control at 250 g/ha: 60%
Lolium perenne (LOLPE); pre-emergence, 480 h, 250 g/ha, pre-emergence, 20 DAA, visual assessment (100%=total damage, 0%=no damage), read-out: Pre-emergence herbicidal activity (percentage phytotoxicity) LOLPE PRE
  pest or weed control at 250 g/ha: 70%

## C/C=C/CNC(=O)CC1CC(=O)C(c2c(C)cc(-c3ncc(F)cc3F)cc2C)C1=O (centres unmarked) [Compound B291]
[1]; [11]
  pest or weed control at 250 g/ha: 90%
[1]; [12]
  pest or weed control at 250 g/ha: 100%
Avena fatua (AVEFA); [13]
  pest or weed control at 250 g/ha: 100%
Avena fatua (AVEFA); [14]
  pest or weed control at 250 g/ha: 90%
[2]; [15]
  pest or weed control at 250 g/ha: 100%
[2]; [16]
  pest or weed control at 250 g/ha: 100%
Lolium perenne (LOLPE); [17]
  pest or weed control at 250 g/ha: 90%
Lolium perenne (LOLPE); [18]
  pest or weed control at 250 g/ha: 100%

## CC#Cc1cc(C)c(C2C(=O)CC(CC(=O)N(C)CCC)C2=O)c(CC)c1 (centres unmarked) [Compound A79]
[1]; [3]
  pest or weed control at 250 g/ha: 100%
[1]; [4]
  pest or weed control at 250 g/ha: 100%
Avena fatua (AVEFA); [5]
  pest or weed control at 250 g/ha: 100%
Avena fatua (AVEFA); [6]
  pest or weed control at 250 g/ha: 100%
[2]; [7]
  pest or weed control at 250 g/ha: 100%
[2]; [8]
  pest or weed control at 250 g/ha: 100%
Lolium perenne (LOLPE); [9]
  pest or weed control at 250 g/ha: 100%
Lolium perenne (LOLPE); [10]
  pest or weed control at 250 g/ha: 100%
